For 10 compounds, Ki and DC50 results are on record in ChEMBL document CHEMBL5380794, “Discovery of a Potent and Selective STAT5 PROTAC Degrader with Strong Antitumor Activity In Vivo in Acute Myeloid Leukemia” (J Med Chem, 2023).

A word on the Ki: it is a measure of affinity in units of concentration, obtained from inhibition or displacement. As usually defined, the DC50 is the midpoint of the concentration-degradation curve. A low value points to a more potent degrader.

For the first test, the target named is T1, Signal transducer and activator of transcription 6 (Homo sapiens, UniProt P42226).
T1 sequence (P42226 whole entry): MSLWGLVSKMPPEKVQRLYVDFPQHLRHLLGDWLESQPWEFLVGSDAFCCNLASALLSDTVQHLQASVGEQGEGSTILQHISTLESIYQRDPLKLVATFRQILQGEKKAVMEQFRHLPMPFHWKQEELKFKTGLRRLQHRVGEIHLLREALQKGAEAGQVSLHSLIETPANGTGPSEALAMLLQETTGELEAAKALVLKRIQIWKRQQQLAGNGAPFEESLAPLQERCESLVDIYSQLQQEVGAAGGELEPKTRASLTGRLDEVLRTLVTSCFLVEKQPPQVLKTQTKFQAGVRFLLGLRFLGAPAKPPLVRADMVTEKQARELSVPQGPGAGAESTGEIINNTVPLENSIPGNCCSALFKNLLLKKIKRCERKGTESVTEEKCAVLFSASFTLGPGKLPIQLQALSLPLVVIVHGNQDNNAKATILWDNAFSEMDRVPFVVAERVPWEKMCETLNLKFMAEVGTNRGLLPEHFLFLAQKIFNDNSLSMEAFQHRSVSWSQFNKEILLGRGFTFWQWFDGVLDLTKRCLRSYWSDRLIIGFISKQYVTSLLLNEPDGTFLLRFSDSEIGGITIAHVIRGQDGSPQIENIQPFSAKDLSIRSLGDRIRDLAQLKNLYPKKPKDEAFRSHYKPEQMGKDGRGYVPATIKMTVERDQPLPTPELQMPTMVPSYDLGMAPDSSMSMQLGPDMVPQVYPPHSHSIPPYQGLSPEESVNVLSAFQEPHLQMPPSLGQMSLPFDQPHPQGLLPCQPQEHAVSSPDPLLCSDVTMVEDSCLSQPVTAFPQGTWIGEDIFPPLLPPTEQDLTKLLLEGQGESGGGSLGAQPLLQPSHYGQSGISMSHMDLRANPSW
The test is described as follows: Binding affinity to STAT6 SH2 domain (unknown origin) assessed as inhibition constant by FP assay.
With `CN(C)C(=O)CCN(C(=O)[C@@H]1CCCN1C(=O)[C@@H](NC(=O)c1cc2cc(C(F)(F)P(=O)(O)O)ccc2s1)C(C)(C)C)c1ccc2ccccc2c1`, the inhibition constant Ki was determined as 200 nM.
Same read-out and setting: with `CN(C)C(=O)CCN(C(=O)[C@@H]1CCCN1C(=O)[C@@H](NC(=O)c1cc2cc(C(F)(F)P(=O)(O)O)ccc2s1)c1ccccc1)c1ccc(-c2nccs2)cc1` the figure was 2500 nM.
Same read-out and setting: the result for `CN(C)C(=O)CCN(C(=O)[C@@H]1CCCN1C(=O)[C@H](Cc1ccc(Br)cc1)NC(=O)c1cc2cc(C(F)(F)P(=O)(O)O)ccc2s1)c1ccc(-c2nccs2)cc1` reads 3000 nM.
The same measure, in the same setting: the result for `CN(C)C(=O)CCN(C(=O)[C@@H]1CCCN1C(=O)[C@@H](NC(=O)c1cc2cc(C(F)(F)P(=O)(O)O)ccc2s1)C(C)(C)C)c1cccc(-c2nccs2)c1` reads 1900 nM; that for `CN(C)C(=O)CCN(C(=O)[C@@H]1CCCN1C(=O)[C@H](Cc1ccc(F)cc1)NC(=O)c1cc2cc(C(F)(F)P(=O)(O)O)ccc2s1)c1ccc(-c2nccs2)cc1`, 3500 nM.
With `CN(C)C(=O)CCN(C(=O)[C@@H]1CCCN1C(=O)[C@@H](NC(=O)c1cc2cc(C(F)(F)P(=O)(O)O)ccc2s1)C(C)(C)C)c1ccc(-c2ccccc2)cc1`, the Ki was 2000 nM.
The same measure, in the same setting: the result for `CN(C)C(=O)CCN(C(=O)[C@@H]1CCCN1C(=O)[C@@H](NC(=O)c1cc2cc(C(F)(F)P(=O)(O)O)ccc2s1)C1CC1)c1ccc(-c2nccs2)cc1` reads 1300 nM; that for `CN(C)C(=O)CCN(C(=O)[C@@H]1CCCN1C(=O)[C@H](CCc1ccccc1)NC(=O)c1cc2cc(C(F)(F)P(=O)(O)O)ccc2s1)c1ccc(-c2nccs2)cc1`, 1500 nM.
Still for that read-out and setting: with `CN(C)C(=O)CCN(C(=O)[C@@H]1CCCN1C(=O)[C@H](Cc1ccc(C(F)(F)F)cc1)NC(=O)c1cc2cc(C(F)(F)P(=O)(O)O)ccc2s1)c1ccc(-c2nccs2)cc1` the figure was 4000 nM.

In another test the target is T2, Signal transducer and activator of transcription 5A (Homo sapiens, UniProt P42229).
T2 sequence (P42229 whole entry): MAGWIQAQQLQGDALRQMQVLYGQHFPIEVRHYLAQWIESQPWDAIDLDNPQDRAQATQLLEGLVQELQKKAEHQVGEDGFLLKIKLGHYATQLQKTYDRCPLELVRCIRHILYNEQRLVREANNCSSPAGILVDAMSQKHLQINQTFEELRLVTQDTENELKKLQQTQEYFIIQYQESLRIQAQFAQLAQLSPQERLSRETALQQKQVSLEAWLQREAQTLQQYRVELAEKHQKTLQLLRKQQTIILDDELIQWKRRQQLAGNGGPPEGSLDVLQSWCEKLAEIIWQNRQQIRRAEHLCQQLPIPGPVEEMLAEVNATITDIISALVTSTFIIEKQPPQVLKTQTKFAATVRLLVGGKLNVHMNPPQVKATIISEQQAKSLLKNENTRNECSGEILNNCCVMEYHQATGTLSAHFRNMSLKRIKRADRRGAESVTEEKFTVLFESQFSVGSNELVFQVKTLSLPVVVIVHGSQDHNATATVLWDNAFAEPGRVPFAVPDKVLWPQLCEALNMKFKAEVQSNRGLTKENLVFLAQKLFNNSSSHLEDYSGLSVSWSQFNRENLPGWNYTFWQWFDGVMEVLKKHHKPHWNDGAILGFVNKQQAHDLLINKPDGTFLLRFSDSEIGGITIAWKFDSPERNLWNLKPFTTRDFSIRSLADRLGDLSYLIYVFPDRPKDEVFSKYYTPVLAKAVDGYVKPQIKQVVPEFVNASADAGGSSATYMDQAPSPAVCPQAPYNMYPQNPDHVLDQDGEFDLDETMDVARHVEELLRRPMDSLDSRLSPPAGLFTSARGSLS
The test is described as follows: Binding affinity to N-terminal 6his-tagged human STAT5A (136 to 705 residues) expressed in Escherichia coli BL21-DE3 rosetta cells assessed as inhibition constant by FP assay.
For the compound `CN(C)C(=O)CCN(C(=O)[C@@H]1CCCN1C(=O)[C@@H](NC(=O)c1cc2cc(C(F)(F)P(=O)(O)O)ccc2s1)C(C)(C)C)c1ccc2ccccc2c1`, the inhibition constant Ki was 1200 nM.
On the same count and under the same terms, with `CN(C)C(=O)CCN(C(=O)[C@@H]1CCCN1C(=O)[C@@H](NC(=O)c1cc2cc(C(F)(F)P(=O)(O)O)ccc2s1)c1ccccc1)c1ccc(-c2nccs2)cc1` the figure was 3200 nM.
Still for that read-out and setting: the result for `CN(C)C(=O)CCN(C(=O)[C@@H]1CCCN1C(=O)[C@H](Cc1ccc(Br)cc1)NC(=O)c1cc2cc(C(F)(F)P(=O)(O)O)ccc2s1)c1ccc(-c2nccs2)cc1` reads 1200 nM.
Same read-out and setting: with `CN(C)C(=O)CCN(C(=O)[C@@H]1CCCN1C(=O)[C@@H](NC(=O)c1cc2cc(C(F)(F)P(=O)(O)O)ccc2s1)C(C)(C)C)c1cccc(-c2nccs2)c1` the figure was 4900 nM; with `CN(C)C(=O)CCN(C(=O)[C@@H]1CCCN1C(=O)[C@H](Cc1ccc(F)cc1)NC(=O)c1cc2cc(C(F)(F)P(=O)(O)O)ccc2s1)c1ccc(-c2nccs2)cc1`, 1000 nM.
As to `CN(C)C(=O)CCN(C(=O)[C@@H]1CCCN1C(=O)[C@@H](NC(=O)c1cc2cc(C(F)(F)P(=O)(O)O)ccc2s1)C(C)(C)C)c1ccc(-c2ccccc2)cc1`, the inhibition constant Ki is 3400 nM.
For the compound `CN(C)C(=O)CCN(C(=O)[C@@H]1CCCN1C(=O)[C@@H](NC(=O)c1cc2cc(C(F)(F)P(=O)(O)O)ccc2s1)C1CC1)c1ccc(-c2nccs2)cc1`, the Ki worked out at 2900 nM.
On the same count and under the same terms, the result for `CN(C)C(=O)CCN(C(=O)[C@@H]1CCCN1C(=O)[C@H](CCc1ccccc1)NC(=O)c1cc2cc(C(F)(F)P(=O)(O)O)ccc2s1)c1ccc(-c2nccs2)cc1` reads 1400 nM; that for `CN(C)C(=O)CCN(C(=O)[C@@H]1CCCN1C(=O)[C@H](Cc1ccc(C(F)(F)F)cc1)NC(=O)c1cc2cc(C(F)(F)P(=O)(O)O)ccc2s1)c1ccc(-c2nccs2)cc1`, 2300 nM; that for `CC(C)(C)[C@H](NC(=O)c1cc2cc(C(F)(F)P(=O)(O)O)ccc2s1)C(=O)N1CCC[C@H]1C(=O)N(CCC(=O)NCCCC#Cc1cccc2c1CN(C1CCC(=O)NC1=O)C2=O)c1ccc2scnc2c1` (stereo not given in full), 1000 nM.

In another test the target is T3, Signal transducer and activator of transcription 5B (Homo sapiens, UniProt P51692).
T3 sequence (P51692 whole entry): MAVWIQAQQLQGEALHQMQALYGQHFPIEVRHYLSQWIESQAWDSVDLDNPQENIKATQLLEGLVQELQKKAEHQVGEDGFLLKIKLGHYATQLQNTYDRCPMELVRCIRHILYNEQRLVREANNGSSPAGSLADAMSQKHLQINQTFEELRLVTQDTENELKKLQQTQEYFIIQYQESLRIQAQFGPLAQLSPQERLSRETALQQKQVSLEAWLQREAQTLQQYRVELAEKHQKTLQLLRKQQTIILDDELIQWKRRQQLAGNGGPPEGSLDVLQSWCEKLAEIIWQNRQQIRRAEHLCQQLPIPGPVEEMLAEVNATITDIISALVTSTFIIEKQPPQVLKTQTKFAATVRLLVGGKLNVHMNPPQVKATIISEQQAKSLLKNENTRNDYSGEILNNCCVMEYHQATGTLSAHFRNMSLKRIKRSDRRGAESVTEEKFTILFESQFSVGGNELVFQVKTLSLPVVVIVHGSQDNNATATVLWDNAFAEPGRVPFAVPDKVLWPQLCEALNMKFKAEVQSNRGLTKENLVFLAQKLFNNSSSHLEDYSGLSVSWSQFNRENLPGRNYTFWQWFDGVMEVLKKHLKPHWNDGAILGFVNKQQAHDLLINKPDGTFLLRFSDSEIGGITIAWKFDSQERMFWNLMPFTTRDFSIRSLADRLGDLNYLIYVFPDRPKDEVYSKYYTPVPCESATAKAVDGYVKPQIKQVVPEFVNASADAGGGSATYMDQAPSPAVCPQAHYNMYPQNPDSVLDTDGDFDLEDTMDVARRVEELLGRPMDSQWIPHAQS
The test is described as follows: Binding affinity to STAT5B (unknown origin) assessed as inhibition constant by FP assay.
As for `CN(C)C(=O)CCN(C(=O)[C@@H]1CCCN1C(=O)[C@@H](NC(=O)c1cc2cc(C(F)(F)P(=O)(O)O)ccc2s1)C(C)(C)C)c1ccc2ccccc2c1`, the Ki is 1000 nM.
On the same count and under the same terms, the result for `CN(C)C(=O)CCN(C(=O)[C@@H]1CCCN1C(=O)[C@@H](NC(=O)c1cc2cc(C(F)(F)P(=O)(O)O)ccc2s1)c1ccccc1)c1ccc(-c2nccs2)cc1` reads 4000 nM; that for `CN(C)C(=O)CCN(C(=O)[C@@H]1CCCN1C(=O)[C@H](Cc1ccc(Br)cc1)NC(=O)c1cc2cc(C(F)(F)P(=O)(O)O)ccc2s1)c1ccc(-c2nccs2)cc1`, 1600 nM.
The same measure, in the same setting: with `CN(C)C(=O)CCN(C(=O)[C@@H]1CCCN1C(=O)[C@@H](NC(=O)c1cc2cc(C(F)(F)P(=O)(O)O)ccc2s1)C(C)(C)C)c1cccc(-c2nccs2)c1` the figure was 6100 nM.
The same measure, in the same setting: with `CN(C)C(=O)CCN(C(=O)[C@@H]1CCCN1C(=O)[C@H](Cc1ccc(F)cc1)NC(=O)c1cc2cc(C(F)(F)P(=O)(O)O)ccc2s1)c1ccc(-c2nccs2)cc1` the figure was 1700 nM; with `CN(C)C(=O)CCN(C(=O)[C@@H]1CCCN1C(=O)[C@@H](NC(=O)c1cc2cc(C(F)(F)P(=O)(O)O)ccc2s1)C(C)(C)C)c1ccc(-c2ccccc2)cc1`, 5200 nM; with `CN(C)C(=O)CCN(C(=O)[C@@H]1CCCN1C(=O)[C@@H](NC(=O)c1cc2cc(C(F)(F)P(=O)(O)O)ccc2s1)C1CC1)c1ccc(-c2nccs2)cc1`, 3100 nM.
As for `CN(C)C(=O)CCN(C(=O)[C@@H]1CCCN1C(=O)[C@H](CCc1ccccc1)NC(=O)c1cc2cc(C(F)(F)P(=O)(O)O)ccc2s1)c1ccc(-c2nccs2)cc1`, the Ki is 1600 nM.
Same read-out and setting: the result for `CN(C)C(=O)CCN(C(=O)[C@@H]1CCCN1C(=O)[C@H](Cc1ccc(C(F)(F)F)cc1)NC(=O)c1cc2cc(C(F)(F)P(=O)(O)O)ccc2s1)c1ccc(-c2nccs2)cc1` reads 2500 nM; that for `CC(C)(C)[C@H](NC(=O)c1cc2cc(C(F)(F)P(=O)(O)O)ccc2s1)C(=O)N1CCC[C@H]1C(=O)N(CCC(=O)NCCCC#Cc1cccc2c1CN(C1CCC(=O)NC1=O)C2=O)c1ccc2scnc2c1` (stereo not given in full), 400 nM.

The target of the next test is T2, Signal transducer and activator of transcription 5A. The test is described as follows: Induction of STAT5 degradation in human SKNO-1 cells measured for 18 hrs by Western blot analysis. Type of test: cell-based. (In general: In western blotting, separated proteins are transferred to a membrane and probed.)
`CC(C)(C)[C@H](NC(=O)c1cc2cc(C(F)(F)P(=O)(O)O)ccc2s1)C(=O)N1CCC[C@H]1C(=O)N(CCC(=O)NCCCC#Cc1cccc2c1CN(C1CCC(=O)NC1=O)C2=O)c1ccc2scnc2c1` (stereo not given in full) displayed a DC50 of 450 nM.
